{"source": "patent US20230149355A1", "about": "“COMPOSITIONS AND METHODS FOR MODULATING TRP CHANNEL ACTIVITY” (priority 2020, published 2023)", "key": {"human TRPA1": {"molecular_target": "human TRPA1 (Homo sapiens, UniProt O75762)", "sequence (O75762 whole entry)": "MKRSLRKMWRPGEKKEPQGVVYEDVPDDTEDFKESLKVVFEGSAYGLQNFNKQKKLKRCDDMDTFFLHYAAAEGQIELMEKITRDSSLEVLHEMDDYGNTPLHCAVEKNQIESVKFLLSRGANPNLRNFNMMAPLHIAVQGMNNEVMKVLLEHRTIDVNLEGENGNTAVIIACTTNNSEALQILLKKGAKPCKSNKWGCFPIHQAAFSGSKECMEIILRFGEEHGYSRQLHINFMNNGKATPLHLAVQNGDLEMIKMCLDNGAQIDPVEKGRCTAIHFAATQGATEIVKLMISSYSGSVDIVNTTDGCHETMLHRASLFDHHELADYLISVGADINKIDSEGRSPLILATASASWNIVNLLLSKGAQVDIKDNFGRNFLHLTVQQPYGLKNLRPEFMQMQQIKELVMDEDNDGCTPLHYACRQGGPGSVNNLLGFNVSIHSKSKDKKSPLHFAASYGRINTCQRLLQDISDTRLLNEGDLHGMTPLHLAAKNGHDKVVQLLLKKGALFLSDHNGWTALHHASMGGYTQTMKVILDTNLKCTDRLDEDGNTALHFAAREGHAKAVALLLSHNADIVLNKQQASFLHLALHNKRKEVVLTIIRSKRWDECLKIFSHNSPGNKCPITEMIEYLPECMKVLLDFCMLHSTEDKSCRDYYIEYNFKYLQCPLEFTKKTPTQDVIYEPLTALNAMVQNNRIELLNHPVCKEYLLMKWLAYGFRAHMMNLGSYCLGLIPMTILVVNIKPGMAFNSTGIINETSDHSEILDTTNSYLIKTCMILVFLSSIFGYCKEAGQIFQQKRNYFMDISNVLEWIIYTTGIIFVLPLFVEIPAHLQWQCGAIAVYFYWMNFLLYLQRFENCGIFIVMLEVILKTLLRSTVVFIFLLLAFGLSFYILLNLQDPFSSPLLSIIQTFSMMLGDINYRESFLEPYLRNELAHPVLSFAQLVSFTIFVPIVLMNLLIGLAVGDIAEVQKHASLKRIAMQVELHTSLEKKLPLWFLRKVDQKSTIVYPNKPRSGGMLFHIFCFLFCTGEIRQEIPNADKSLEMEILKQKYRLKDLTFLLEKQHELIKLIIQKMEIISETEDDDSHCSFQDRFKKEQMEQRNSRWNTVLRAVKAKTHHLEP", "test": "Ca2+ influx (Calcium 6 fluorescence) in human TRPA1 expressing HEK-293T cells", "format": "cell-based", "description": "(§1) HEK-293T cells were cultured in DMEM (Thermofisher Scientific, Waltham, Mass.) and supplemented with 10% fetal bovine serum (FBS) (Thermofisher Scientific), penicillin (100 units/mL) and streptomycin (0.1 mg/mL). Cells were plated on 100 mm tissue culture plates coated with poly-D-lysine (Sigma Aldrich, Saint Louis, Mo.) and grown to ˜60% confluence. The cells were transiently transfected for 16-24 hours with either human or mouse orthologs of TRPA1 using Fugene 6 transfection reagents and Opti-MEM (Thermofisher Scientific) according to the manufacturer's protocol. Subsequently, cells were trypsinized, re-suspended and re-plated onto poly-D-lysine coated 96-well plates (Krystal black walled plates, Genesee Scientific) at 5×10^5 cells/mL (100 μL/well) and allowed to grow for another 16-20 hrs prior to the experiments. Cells were maintained as monolayers in a 5% CO2 incubator at 37° C.\n(§2) Measurements of changes in intracellular Ca^2+ concentrations ([Ca^2+]i) were performed as described previously (Caceres et al., 2017). In brief, cells in 96-well plates were loaded with Calcium 6, a no-wash fluorescent indicator, for 1.5 hrs (Molecular Devices, San Jose, Calif.) and then transferred to a FlexStation III benchtop scanning fluorometer chamber (Molecular Devices). Fluorescence measurements in the FlexStation were performed at 37° C. (Ex:485 nm, Em: 525 nm at every 1.8 s). After recording baseline fluorescence, agonists (indole, IAld, cinnamaldehyde) were added and fluorescence was monitored for a total of 60 s. […] The change in fluorescence was measured as Fmax-F0, where Fmax is the maximum fluorescence and F0 is the baseline fluorescence measured in each well."}, "mouse TRPA1": {"molecular_target": "T1, mouse TRPA1 (Mus musculus, UniProt Q8BLA8)", "T1 construct": "expressed in transfected cells; host or cells: HEK-293T", "T1 sequence (Q8BLA8 whole entry)": "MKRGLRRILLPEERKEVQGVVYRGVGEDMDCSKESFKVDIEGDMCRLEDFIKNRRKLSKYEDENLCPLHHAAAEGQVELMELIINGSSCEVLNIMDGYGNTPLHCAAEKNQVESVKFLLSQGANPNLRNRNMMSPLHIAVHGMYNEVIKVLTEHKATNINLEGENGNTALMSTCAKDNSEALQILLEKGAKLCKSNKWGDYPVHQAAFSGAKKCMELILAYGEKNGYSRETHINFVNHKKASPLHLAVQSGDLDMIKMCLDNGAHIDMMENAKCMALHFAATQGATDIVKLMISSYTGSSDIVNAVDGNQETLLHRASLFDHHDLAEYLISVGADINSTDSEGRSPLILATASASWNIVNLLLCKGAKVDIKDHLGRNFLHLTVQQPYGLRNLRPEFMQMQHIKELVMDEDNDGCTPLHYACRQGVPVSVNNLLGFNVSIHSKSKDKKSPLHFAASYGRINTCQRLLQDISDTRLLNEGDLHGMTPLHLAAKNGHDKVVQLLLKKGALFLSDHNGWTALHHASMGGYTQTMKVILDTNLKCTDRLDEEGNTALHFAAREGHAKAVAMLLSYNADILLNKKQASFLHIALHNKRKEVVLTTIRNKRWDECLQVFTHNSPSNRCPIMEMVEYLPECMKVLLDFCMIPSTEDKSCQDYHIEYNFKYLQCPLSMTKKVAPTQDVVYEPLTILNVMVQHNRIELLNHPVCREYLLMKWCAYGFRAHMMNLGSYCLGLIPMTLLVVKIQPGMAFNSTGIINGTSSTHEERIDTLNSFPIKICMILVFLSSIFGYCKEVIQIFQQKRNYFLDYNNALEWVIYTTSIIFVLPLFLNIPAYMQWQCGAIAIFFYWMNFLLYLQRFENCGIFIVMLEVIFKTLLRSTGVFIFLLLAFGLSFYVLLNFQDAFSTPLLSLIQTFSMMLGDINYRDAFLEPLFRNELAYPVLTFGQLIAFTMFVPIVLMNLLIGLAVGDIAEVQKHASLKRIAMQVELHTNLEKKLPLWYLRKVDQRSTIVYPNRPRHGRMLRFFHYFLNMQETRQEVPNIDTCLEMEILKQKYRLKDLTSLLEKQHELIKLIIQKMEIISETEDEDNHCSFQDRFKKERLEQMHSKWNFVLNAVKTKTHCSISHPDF", "test": "Ca2+ influx (Calcium 6 fluorescence) in mouse Trpa1-expressing HEK-293T cells", "format": "cell-based", "description": "as §1, §2"}, "intestinal motility": {"tested_on": "intestinal motility", "test": "Zebrafish intestinal motility (PIV-Lab velocity analysis)", "format": "in vivo", "text": "The zebrafish intestinal motility is quantified through recorded image series of zebrafish intestine using the method similar as previously described (Ganz et al., 2018). Intestinal p velocity and v velocity were used to estimate intestinal motility in zebrafish as previously described using the PIV-Lab MATLAB app (Ganz et al., 2018). A positive value of the μ velocity indicates an anterograde intestinal movement and a negative value of the μ velocity indicates a retrograde intestinal movement. The time-course p velocity number is plotted as heatmaps. When calculating the mean velocity, only the mean velocity magnitude was calculated, which therefore doesn't account for the movement direction. The MTrackJ FIJI plugin was used to quantify the mean velocity magnitude (Meijering et al., 2012)."}, "E. tarda": {"tested_on": "E. tarda", "test": "Intestinal E. tarda mCherry accumulation in zebrafish treated with AhR inhibitors", "format": "in vivo", "conditions": "AhR inhibitor 1 μM or folic acid 10 μM, 3 dpf to 6 dpf", "description": "For E. tarda colonization experiments, fertilized zebrafish eggs were collected, sorted and transferred into a cell culture flask containing 80 mL GZM at 0 dpf. At 3 dpf, dead embryos and 60 mL GZM were removed and replaced with 50 mL fresh GZM in each flask. To facilitate consistent commensal gut bacterial colonization, an additional 10 mL of filtered system water (5 μm filter, SLSV025LS, Millipore) were added to each flask. Overnight E. tarda mCherry culture was harvested, washed three times with GZM. 150 μL of GZM-washed E. tarda mCherry culture were inoculated into each flask. The E. tarda concentration is ˜10^6 CFU/ml. […] At 6 dpf, zebrafish larvae were subjected to fluorescence imaging analysis or CFU quantification. For fluorescence imaging analysis, zebrafish larvae were anesthetized with Tricaine ([…]), mounted in 3% methylcellulose and imaged with a Leica M205 FA upright fluorescence stereomicroscope equipped with a Leica DFC 365FX camera. For CFU quantification, digestive tracts were dissected and transferred into 1 mL sterile PBS which was then mechanically disassociated using a Tissue-Tearor (BioSpec Products, 985370). […] The mCherry+ colonies were quantified from each plate and E. tarda colony forming units (CFUs) per fish were calculated. […]"}, "AhR signaling": {"tested_on": "AhR signaling", "conditions": "2-hour 10 μM and 3-day 0.5 μM treatment; cited from earlier work"}, "zebrafish EECs (Trpa1)": {"tested_on": "zebrafish EECs (Trpa1)", "test": "In vivo EEC calcium, Tg(neurod1:Gcamp6f) zebrafish", "description": "To record in vivo EEC activity using the Tg(neurod1:Gcamp6f) system, a published protocol with slight modification (Ye et al., 2019) was used. In brief, unanesthetized zebrafish larvae were gently mounted in 3% methylcellulose. Excess water was removed and zebrafish larvae were gently positioned with right side up. Zebrafish were then moved onto an upright Leica M205 FA fluorescence stereomicroscope equipped with a Leica DFC 365FX camera. The zebrafish larvae were allowed to recover for 2 mins before 100 μL of test agent was pipetted directly in front of the mouth region. Images were then recorded every 10 seconds. The data shown in FIG. 2O-R, depicting the EEC responses to E. tarda stimulation, were obtained by mounting unanesthetized zebrafish larvae in 1% low melting agarose. A window (5×5 mm) was cut to expose the head region of the zebrafish. 10 μL of E. tarda culture [˜10^9 Colony Forming Unit (CFU)] were delivered at the zebrafish mouth area. Images were recorded every 10 secs for 20 mins. Image processing and analysis were performed using FIJI software. Time-lapse fluorescence images were first aligned to correct for experimental drift using the plugin “align slices in stack.” Normalized correlation coefficient matching and bilinear interpolation methods for subpixel translation were used for aligning slices (Tseng et al., 2012). The plugin “rolling ball background subtraction” with the rolling ball radius=10 pixels was used to remove the large spatial variation of background intensities. The Gcamp6f fluorescence intensity in the intestinal region was then calculated for each time point. The ratio of maximum fluorescence (Fmax) and the initial fluorescence (F0) was used to measure EEC calcium responses.\nFor EEC Trpa1 activation using the Optovin platform, zebrafish larvae were treated with 10 μM Optovin overnight. Following Optovin treatment, unanesthetized zebrafish were mounted in 1% LMA and imaged under a 780 upright Zeiss confocal microscope using 20× water objective lenses. For all the experiments, the mid-intestine region was imaged (FIG. 10D). The intestinal epithelium was selected as the region of interest (ROI) (FIG. 10A). Serial images were obtained at 1 s/frame. A 405 nm pulse of light was applied to the ROI at 1 pulse/10 s. For some experiments (FIG. 7D-F, FIG. 10B-G), the images were obtained at 10 s/frame. When measuring Optovin effects on intestinal motility in ret−/−, sox10−/− or tph1b−/− zebrafish larvae, embryos were collected from heterozygous zebrafish. ret−/− zebrafish were identified by lack of ENS and deflated swim bladder (Knight et al., 2011), sox10−/− zebrafish were identified by lack of pigment (Rolig et al., 2017), and tph1b−/− zebrafish were identified by PCR-based genotyping (Tornini et al., 2017).\nTo determine whether Optovin-UV or ChR2 was sufficient to activate EECs, Tg(neurod1:Gcamp6f) zebrafish were used. […] The Gcamp6f signal was recorded with 488 nm laser intensity less than 0.5. The zebrafish intestinal motility is quantified through recorded image series of zebrafish intestine using the method similar as previously described (Ganz et al., 2018). […] When calculating the mean velocity, only the mean velocity magnitude was calculated, which therefore doesn't account for the movement direction. The MTrackJ FIJI plugin was used to quantify the mean velocity magnitude (Meijering et al., 2012)."}, "vagal sensory neurons": {"tested_on": "vagal sensory neurons", "test": "In vivo calcium imaging of vagal sensory ganglia after microgavage", "design": "species or system zebrafish", "conditions": "WT; enteric microgavage ~8 nl, AITC 100 mM, indole 1 mM, IAld 1 mM", "description": "For delivering bacterial or chemicals specifically to the intestine, the established microgavage technique (Cocchiaro and Rawls, 2013) was adopted. Zebrafish were anesthetized with 1 mg/mL α-Bungarotoxin (α-BTX) and the gavage procedure was performed as previously described using microinjection station (Cocchiaro and Rawls, 2013). For bacteria gavage experiments, 1 ml of overnight bacterial culture was harvested, pelleted, washed with PBS and resuspended in 100 ul PBS.˜8 nl was then delivered into the zebrafish intestine using microgavage. The gavaged zebrafish was then transferred into egg water and mounted in 1% LMA for imaging. For chemical gavage experiments, ˜8 nl of AITC (100 mM), indole (1 mM) and IAld (1 mM) was gavaged into the intestine.\nTg(neurod1:Gcamp6f); Tg(neurod1:TagRFP) zebrafish were used to record vagal sensory ganglia calcium activity in vivo. Zebrafish were anesthetized with 1 mg/mL α-Bungarotoxin (α-BTX) and gavaged with chemical compounds or bacteria as described (Naumann et al., 2016). Zebrafish larvae were mounted in 1% LMA and imaged under a Zeiss 780 upright confocal microscope. Z-stack images of the entire vagal ganglia were collected as serial images at 10 mins/frame and processed in FIJI. Individual vagal sensory neurons were identified and the Gcamp6f to TagRFP fluorescence ratios of individual vagal sensory neurons were calculated."}}}
{"smiles": "CCC(=N\\O)/C(C)=C/c1ccc(F)cc1", "note": "[A967079]", "values": [{"measurement": "Effect on indole- and IAld-induced human Trpa1 activation", "setting": "human TRPA1; human", "value": "blocked"}, {"measurement": "Effect on indole- and IAld-induced mouse Trpa1 activation", "setting": "mouse TRPA1; mouse", "value": "blocked"}, {"measurement": "IC50", "setting": "mouse TRPA1; mouse Trpa1-expressing HEK-293T cells, normalized to 100 μM Indole", "value": 0.315, "unit": "µM"}]}
{"smiles": "Cc1ccccc1N=Nc1ccc(NC(=O)c2ccnn2C)c(C)c1", "note": "[CH223191]", "values": [{"measurement": "Effect on Optovin-UV induced intestinal motility change", "setting": "intestinal motility; AhR inhibitor 10 μM or folic acid 10 μM for 2 hours", "value": "insufficient to block"}, {"measurement": "Effect on E. tarda intestinal accumulation", "setting": "E. tarda", "value": "insufficient to block"}, {"measurement": "Inhibition of larvae zebrafish AhR signaling", "setting": "AhR signaling", "value": "sufficient to inhibit"}]}
{"smiles": "O=Cc1c[nH]c2ccccc12", "note": "[IAld, indole-3-carboxaldehyde]", "values": [{"measurement": "Activation of human TRPA1 receptor transfected into HEK cells", "setting": "human TRPA1", "value": "activated"}, {"measurement": "TRPA1 agonist efficacy", "setting": "human TRPA1; efficiency comparable to cinnamaldehyde (CAD)", "value": "full TRPA1 agonist activity"}, {"measurement": "EC50", "setting": "human TRPA1; human TRPA1 expressing HEK-293T cells, normalized to 1 mM cinnamaldehyde (CAD), read-out: EC50, integrated Calcium 6 fluorescence response above baseline (Fmax-F0; maximal change in Ca2+ influx)", "value": 77.7, "unit": "µM"}, {"measurement": "Activation of mouse Trpa1", "setting": "mouse TRPA1; compared with human TRPA1", "value": "activated mouse Trpa1, but in a less potent manner"}, {"measurement": "EC50", "setting": "mouse TRPA1; mouse TRPA1, normalized to 1 mM cinnamaldehyde (CAD), read-out: EC50, dose-response effects on mouse TRPA1", "value": 189, "unit": "µM"}, {"measurement": "Zebrafish EEC activation (Gcamp6f fluorescence)", "setting": "zebrafish EECs (Trpa1); trpa1b-dependent", "value": "strongly activated"}, {"measurement": "Gcamp6f fluorescence in a subset of vagal sensory neurons", "setting": "vagal sensory neurons", "value": "increased"}]}
{"smiles": "Cc1cc(/C=C2/SC(=S)NC2=O)c(C)n1-c1cccnc1", "note": "[Optovin]", "values": [{"measurement": "EEC [Ca2+]i (Gcamp6f fluorescence) after UV light activation", "setting": "zebrafish EECs (Trpa1); WT larvae pretreated with Optovin 10 μM overnight, 405 nm", "value": "significantly increased"}, {"measurement": "EEC [Ca2+]i after UV light exposure", "setting": "zebrafish EECs (Trpa1); trpa1b−/− larvae pretreated with Optovin", "value": "did not increase"}, {"measurement": "Intestinal motility after Optovin treatment and UV activation", "setting": "intestinal motility; EEC-ablated zebrafish", "value": "failed to induce intestinal motility"}, {"measurement": "Velocity of intestinal motility after Optovin-UV Trpa1 activation", "setting": "intestinal motility; WT larvae, middle intestine", "value": "increased"}]}
